Laboratory results: US4130559A, “Method for the preparation of 6-aminopenicillinic acid derivatives” (priority 1977, dated 1978)
≈ marks a conversion by molar mass, not a printed value. Read-outs that look alike come from different tables or passages of the source.

Key:
[1] = in vivo; settings: mouse, iv
[2] = Acid resistance (half-life period); assay type: physicochemical; settings: acid ph 1.3, Temperature 37° C, pH 1.3, read-out: τ1/2 half-life period (acid resistance)
Protocol: (§1) All compounds of this group were prepared in the form of sodium salts. Bactericidal activity, degree of hydrolysis with staphylococc penicillinase and acid resistance of the penicillins were determined.

[3] = system: Sh.dysenteriae Flexneri; experiment: Minimal bacteriostatic concentration; assay type: cell-based; settings: Shigella dysenteriae, read-out: Minimal Bacteriostatic Concentration
Protocol: as §1

[4] = system: Strept. pyrogenes; experiment: Minimal bacteriostatic concentration; assay type: cell-based; settings: sodium salts
Protocol: as §1

[5] = system: B.Subtitis ATCC6633; experiment: Minimal bacteriostatic concentration; assay type: cell-based; settings: sodium salts
Protocol: as §1

[6] = system: E.coli O-55; experiment: Minimal bacteriostatic concentration; assay type: cell-based; settings: Escherichia coli, O55, read-out: Minimal Bacteriostatic Concentration
Protocol: as §1

[7] = system: Prot.vulgaris; experiment: Minimal bacteriostatic concentration; assay type: cell-based; settings: Proteus vulgaris, sodium salts
Protocol: as §1

[8] = system: Staph. albus; experiment: Minimal bacteriostatic concentration; assay type: cell-based; settings: sodium salts
Protocol: as §1

[9] = system: Vibrion Metschnicoff; experiment: Minimal bacteriostatic concentration; assay type: cell-based; settings: Vibrion Metschnicoff; sodium salts; read-out: Minimal Bacteriostatic Concentration
Protocol: as §1

[10] = system: Myco smegmatis; experiment: Minimal bacteriostatic concentration; assay type: cell-based; settings: sodium salts
Protocol: as §1

[11] = system: Staph. aureus 209p; experiment: Minimal bacteriostatic concentration; assay type: cell-based; settings: Staphylococcus aureus, sodium salts
Protocol: as §1

[12] = target: staphylococc penicillinase (Staphylococcus aureus, UniProt P00807); experiment: Hydrolysis/inactivation by staphylococc penicillinase; assay type: biochemical; settings: Table 5
staphylococc penicillinase, sequence (P00807 25-281): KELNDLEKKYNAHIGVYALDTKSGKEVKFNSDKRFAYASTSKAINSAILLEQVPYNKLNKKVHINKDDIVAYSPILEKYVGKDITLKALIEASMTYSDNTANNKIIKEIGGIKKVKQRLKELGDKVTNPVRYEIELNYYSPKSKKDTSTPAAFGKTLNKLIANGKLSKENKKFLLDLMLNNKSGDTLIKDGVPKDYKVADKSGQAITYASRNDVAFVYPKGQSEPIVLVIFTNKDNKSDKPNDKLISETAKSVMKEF
Protocol: as §1
The substitution of propoxy radical for iso-radical in this position is not accompanied by areduction of penicillin stability against penicillinase which is not observed in the orto- and para-positions. During the subsequent hours of inactivation the rate of hydrolysis of penicillins slightly increases. However, even when observed in dynamics, their stability against penicillianase still persists during 4-hour-inactivation.

| Compound | MTD [1] | half-life ([2]; Table 3, cyclobutyl series) | other results |
| --- | --- | --- | --- |
| CCCOc1ccccc1C1(C(=O)N[C@@H]2C(=O)N3[C@@H]2SC(C)(C)[C@@H]3C(=O)O)CCC1 [Compound IV (Table 3)] | 500 mg/kg | 23 min |  |
| CCCOc1ccc(C2(C(=O)N[C@@H]3C(=O)N4[C@@H]3SC(C)(C)[C@@H]4C(=O)O)CCC2)cc1 [Compound XIV (Table 3)] | 250 mg/kg | 27.3 min |  |
| CCCCOc1ccc(C2(C(=O)N[C@@H]3C(=O)N4[C@@H]3SC(C)(C)[C@@H]4C(=O)O)CCC2)cc1 [Compound XVI (Table 3)] | 500 mg/kg | 25.6 min |  |
| CC1(C)S[C@@H]2[C@H](NC(=O)C3(c4ccccc4)CCC3)C(=O)N2[C@H]1C(=O)O [Compound I (Table 3)] | 1000 mg/kg | 86.6 min |  |
| CCCCOc1ccc(C2(C(=O)N[C@@H]3C(=O)N4[C@@H]3SC(C)(C)[C@@H]4C(=O)O)CC2)cc1 [Compound XVI (Table 2)] | 250 mg/kg |  | half-life ([2]; Table 2, cyclopropyl series): 6.1 min |
| CCOc1ccc(C2(C(=O)N[C@@H]3C(=O)N4[C@@H]3SC(C)(C)[C@@H]4C(=O)O)CC2)cc1 [Compound XIII (Table 2)] | 2750 mg/kg |  | half-life ([2]; Table 2, cyclopropyl series): 6.7 min |
| COc1ccccc1C1(C(=O)NC2C(=O)N3C2SC(C)(C)C3C(=O)O)CC1 (stereo not shown) [Compound II (Table 2)] | 2000 mg/kg |  | half-life ([2]; Table 2, cyclopropyl series): 5 min |
| CCOc1ccccc1C1(C(=O)N[C@@H]2C(=O)N3[C@@H]2SC(C)(C)[C@@H]3C(=O)O)CCC1 [Compound III (Table 3)] | 250 mg/kg | 19.1 min |  |
| CCCCOc1ccccc1C1(C(=O)N[C@@H]2C(=O)N3[C@@H]2SC(C)(C)[C@@H]3C(=O)O)CCC1 [Compound VI (Table 3)] | 1000 mg/kg | 24.9 min |  |
| CCCOc1ccccc1C1(C(=O)NC2C(=O)N3C2SC(C)(C)C3C(=O)O)CC1 (stereo not shown) [Compound IV (Table 2)] | 500 mg/kg |  | half-life ([2]; Table 2, cyclopropyl series): 5.8 min |
| COc1ccccc1C1(C(=O)N[C@@H]2C(=O)N3[C@@H]2SC(C)(C)[C@@H]3C(=O)O)CCC1 [Compound II (Table 3)] | 500 mg/kg | 7.7 min |  |
| CC(C)Oc1ccccc1C1(C(=O)NC2C(=O)N3C2SC(C)(C)C3C(=O)O)CC1 (stereo not shown) [Compound V (Table 2)] | 500 mg/kg |  | half-life ([2]; Table 2, cyclopropyl series): 6 min |
| CCCOc1cccc(C2(C(=O)N[C@@H]3C(=O)N4[C@@H]3SC(C)(C)[C@@H]4C(=O)O)CCC2)c1 [Compound IX (Table 3)] | 250 mg/kg | 20.1 min |  |
| CC(C)Oc1ccc(C2(C(=O)N[C@@H]3C(=O)N4[C@@H]3SC(C)(C)[C@@H]4C(=O)O)CCC2)cc1 [Compound XV (Table 3)] | 500 mg/kg | 60.1 min |  |
| COc1ccc(C2(C(=O)N[C@@H]3C(=O)N4[C@@H]3SC(C)(C)[C@@H]4C(=O)O)CCC2)cc1 [Compound XII (Table 3)] | 1500 mg/kg | 10.7 min |  |
| CCCCOc1cccc(C2(C(=O)NC3C(=O)N4C3SC(C)(C)C4C(=O)O)CCCC2)c1 (stereo not shown) [Compound XI (Table 1)] | 2000 mg/kg |  | MIC [3]: 125 µg/mL (≈ 271 µM); MIC [4]: 0.39 µg/mL; MIC [5]: 1.56 µg/mL; MIC [6]: 125 µg/mL (≈ 271 µM); MIC [7]: 125 µg/mL; MIC [8]: 0.19 µg/mL; MIC [9]: 15.6 µg/mL; MIC [10]: > 500 µg/mL; MIC [11]: 0.39 µg/mL; half-life ([2]; Table 1, cyclopentyl series): 278 min; Quantity of inactivated units of compounds under the action of 1 unit of staphylococc penicillinase [12]: 11.2 units |
| CC(C)Oc1ccccc1C1(C(=O)N[C@@H]2C(=O)N3[C@@H]2SC(C)(C)[C@@H]3C(=O)O)CCC1 [Compound V (Table 3)] | 250 mg/kg | 18.6 min |  |
| CCOc1ccc(C2(C(=O)N[C@@H]3C(=O)N4[C@@H]3SC(C)(C)[C@@H]4C(=O)O)CCC2)cc1 [Compound XIII (Table 3)] | 1000 mg/kg | 190 min |  |
